Measured values: patent publication US6172079A, “5-substituted-3-oxadiazolyl-1,6-naphthyridin-2(1H)-one derivatives” (Dainippon Pharmaceutical Co., Ltd., priority 1997, dated 2001)

Experiments:
benzodiazepine receptor = test: Benzodiazepine Receptor Binding Assay; details: read-out: BZP-receptor Binding IC50; [3H]-diazepam 1.5 nM; rat brain crude synaptosome membrane; 0° C., 20 min
[1] = tested on: GABAA receptor complex (TBPS binding); test: TBPS Binding Assay; design: species or system Wistar rats; details: [35S]TBPS 0.4 nM, GABA 1 μM, rat cerebral cortex membrane, +% inverse agonistic, 0% antagonistic
Description: The TBPS (t-butylbicyclophosphonothionate) binding assay and the preparation of the membrane specimen were done in a similar manner to the method of Biggio, G. et al. [cf. European Journal of Pharmacology, vol.
That is, to the cerebral cortex was added a 50-fold volume of an ice-cooled buffer (a 50 mM Tris-citrate buffer containing 100 mM sodium chloride, pH 7.4) and the mixture was homogenized at 0-4° C. and then centrifuged at 20,000 g for 20 minutes. The pellets thus obtained were once subjected to homogenization in a buffer and centrifugation by the same procedure as above and then kept in freezed state at -80° C. for more than 20 hours. On the test day, the freezed pellets were thawed and then subjected twice to the homogenization-centrifugation procedure as described above.
Subsequently, the filter was moved into a liquid scintillation vial and thereto was added a liquid scintillation cocktail (ACS-II, manufactured by Amersham, USA, 10 ml) and allowed to stand for a fixed period of time. […] Separately, the same procedures were repeated in the presence of Picrotoxin to determine the non-specific binding amount. The non-specific binding amount was deducted from the total binding amount to give the specific binding amount. The binding activity of the test compound was calculated by a variation rate, i.e., a rate of the specific binding amount of the test compound to the specific binding amount in control (using a solvent).

| IC50 (benzodiazepine receptor) [nM] | TBPS binding Variation Rate [1] [%] | SMILES |
| --- | --- | --- |
| 1.87 | – | Cc1ccccc1-c1nccc2[nH]c(=O)c(-c3nc(C4CC4)no3)cc12 [Example 242] |
| 0.96 | – | CCc1nc(-c2cc3c(-c4cccc(F)c4)nccc3[nH]c2=O)no1 [Example 27] |
| 1.64 | – | CCc1nc(-c2cc3c(-c4cccc(C)c4)nccc3[nH]c2=O)no1 [Example 31] |
| – | 13 | Cc1noc(-c2cc3c(-c4ccc(Cl)cc4)nccc3[nH]c2=O)n1 [Example 181] |
| 1.28 | – | CCc1noc(-c2cc3c(-c4cccc(OC)c4)nccc3[nH]c2=O)n1 [Example 209] |
| 4.64 | – | CCc1nc(-c2cc3c(-c4ccccc4C)nccc3[nH]c2=O)no1 [Example 97] |
| 1.91 | – | CCc1nnc(-c2cc3c(-c4ccccc4)nccc3[nH]c2=O)o1 [Example 311] |
| 8.56 | – | CCc1nc(-c2cc3c(-c4ccccc4OC)nccc3[nH]c2=O)no1 [Example 98] |
| 4.77 | – | CCc1noc(-c2cc3c(-c4ccccc4C)nccc3[nH]c2=O)n1 [Example 205] |
| 1.61 | – | O=c1[nH]c2ccnc(-c3ccccc3F)c2cc1-c1nc(C2CC2)no1 [Example 236] |
| 1.41 | – | CC(C)c1noc(-c2cc3c(-c4ccccc4F)nccc3[nH]c2=O)n1 [Example 226] |
| – | 19 | COc1ccccc1-c1nccc2[nH]c(=O)c(-c3nc(C)no3)cc12 [Example 185] |
| 2.03 | – | CCCc1noc(-c2cc3c(-c4ccc(F)cc4)nccc3[nH]c2=O)n1 [Example 219] |
| 0.67 | – | CCc1nc(-c2cc3c(-c4ccccc4)nccc3[nH]c2=O)no1 [Example 26] |
| 1.67 | – | CCc1nc(-c2cc3c(-c4cccc(OC)c4)nccc3[nH]c2=O)no1 [Example 99] |
| 5.28 | – | CCc1nc(-c2cc3c(-c4cccc(Cl)c4)nccc3[nH]c2=O)no1 [Example 29] |
| 4.14 | – | CCc1noc(-c2cc3c(-c4ccccc4OC)nccc3[nH]c2=O)n1 [Example 208] |
| 2.12 | – | CC(C)c1noc(-c2cc3c(-c4ccccc4)nccc3[nH]c2=O)n1 [Example 225] |
| 1.28 | – | Cc1ccccc1-c1nccc2[nH]c(=O)c(-c3noc(C4CC4)n3)cc12 [Example 118] |
| 2.14 | – | CCCc1nc(-c2cc3c(-c4ccccc4F)nccc3[nH]c2=O)no1 [Example 108] |

| IC50 (benzodiazepine receptor) [nM] | TBPS binding Variation Rate [1] [%] | SMILES |
| --- | --- | --- |
| 0.91 | – | O=c1[nH]c2ccnc(-c3ccccc3)c2cc1-c1nc(C2CC2)no1 [Example 235] |
| 0.9 | – | CC(C)c1noc(-c2cc3c(-c4cccs4)nccc3[nH]c2=O)n1 [Example 230] |
| 3.29 | – | CCc1nc(-c2cc3c(-c4ccc(C)cc4)nccc3[nH]c2=O)no1 [Example 32] |
| 5.51 | – | CCc1noc(-c2cc3c(-c4ccc(Cl)cc4)nccc3[nH]c2=O)n1 [Example 204] |
| 2.58 | – | CCCc1noc(-c2cc3c(-c4cccc(F)c4)nccc3[nH]c2=O)n1 [Example 218] |
| 1.17 | – | O=c1[nH]c2ccnc(-c3ccccc3F)c2cc1-c1noc(C2CC2)n1 [Example 116] |
| 1.46 | – | CC(C)c1noc(-c2cc3c(-c4cccc(F)c4)nccc3[nH]c2=O)n1 [Example 227] |
| 1.62 | – | Cc1cccc(-c2nccc3[nH]c(=O)c(-c4noc(C)n4)cc23)c1 [Example 9] |
| 1.34 | – | CCCc1noc(-c2cc3c(-c4ccccc4F)nccc3[nH]c2=O)n1 [Example 217] |
| 0.72 | – | CCCc1noc(-c2cc3c(-c4cccs4)nccc3[nH]c2=O)n1 [Example 221] |
| 1.55 | – | CCc1noc(-c2cc3c(-c4ccccc4F)nccc3[nH]c2=O)n1 [Example 199] |
| 1.17 | – | CCCc1noc(-c2cc3c(-c4ccccc4)nccc3[nH]c2=O)n1 [Example 216] |
| 1.81 | – | Cc1cccc(-c2nccc3[nH]c(=O)c(-c4nc(C5CC5)no4)cc23)c1 [Example 243] |
| 1.49 | – | CCCc1noc(-c2cc3c(-c4ccsc4)nccc3[nH]c2=O)n1 [Example 222] |
| 1.84 | – | CCc1noc(-c2cc3c(-c4ccc(F)cc4)nccc3[nH]c2=O)n1 [Example 201] |
| 2.68 | – | CC(C)c1nc(-c2cc3c(-c4ccccc4F)nccc3[nH]c2=O)no1 [Example 112] |
| 2.53 | – | COc1ccccc1-c1nccc2[nH]c(=O)c(-c3noc(C4CC4)n3)cc12 [Example 119] |
| 4.01 | – | CCCCc1nccc2[nH]c(=O)c(-c3nc(CC)no3)cc12 [Example 195] |
| 1.41 | – | O=c1[nH]c2ccnc(-c3ccccc3Cl)c2cc1-c1noc(C2CC2)n1 [Example 117] |
| 3.42 | – | CCc1noc(-c2cc3c(-c4ccc(C)cc4)nccc3[nH]c2=O)n1 [Example 207] |

More lines, now with the values behind:

| SMILES | IC50 (benzodiazepine receptor) [nM] | TBPS binding Variation Rate [1] [%] |
| --- | --- | --- |
| Cc1ccc(-c2nccc3[nH]c(=O)c(-c4noc(C)n4)cc23)cc1 [Example 10] | 8.08 | – |
| CCCc1nccc2[nH]c(=O)c(-c3noc(CC)n3)cc12 [Example 15] | 6.16 | – |
| CCCc1nc(-c2cc3c(-c4cccc(F)c4)nccc3[nH]c2=O)no1 [Example 39] | 2.86 | – |
| O=c1[nH]c2ccnc(C3CC3)c2cc1-c1nc(C2CC2)no1 [Example 234] | 0.84 | – |
| Cc1nccc2[nH]c(=O)c(-c3noc(C4CC4)n3)cc12 [Example 1, 3-(5-cyclopropyl-1,2,4-oxadiazol-3-yl)-5-methyl-1,6-naphthyridin-2(1H)-one] | 2.28 | – |
| CCCc1nc(-c2cc3c(C4CC4)nccc3[nH]c2=O)no1 [Example 37] | 3.91 | – |
| COc1cccc(-c2nccc3[nH]c(=O)c(-c4noc(C5CC5)n4)cc23)c1 [Example 120] | 1.59 | – |
| C=Cc1nc(-c2cc3c(C4CC4)nccc3[nH]c2=O)no1 [Example 61] | 1.04 | – |
| O=c1[nH]c2ccnc(-c3cccs3)c2cc1-c1nc(C2CC2)no1 [Example 246] | 1.46 | – |
| Cc1nccc2[nH]c(=O)c(-c3nc(C4CC4)no3)cc12 [Example 232] | 6.48 | – |
| O=c1[nH]c2ccnc(-c3ccc(Cl)cc3)c2cc1-c1noc(C2CC2)n1 [Example 56] | 2.71 | – |
| O=c1[nH]c2ccnc(-c3cccs3)c2cc1-c1noc(C2CC2)n1 [Example 122] | 0.87 | – |
| Cc1cccc(-c2nccc3[nH]c(=O)c(-c4noc(C5CC5)n4)cc23)c1 [Example 57] | 1.55 | – |
| COc1ccc(-c2nccc3[nH]c(=O)c(-c4noc(C5CC5)n4)cc23)cc1 [Example 59] | 1.98 | – |
| CCc1nc(-c2cc3c(-c4ccc(Cl)s4)nccc3[nH]c2=O)no1 [Example 104] | 5.18 | – |
| CC(C)c1nc(-c2cc3c(-c4cccc(F)c4)nccc3[nH]c2=O)no1 [Example 46] | 2.15 | – |
| CCCc1nc(-c2cc3c(-c4ccco4)nccc3[nH]c2=O)no1 [Example 109] | 1.75 | – |
| CC(C)c1nc(-c2cc3c(-c4ccsc4)nccc3[nH]c2=O)no1 [Example 115] | 1.52 | – |
| CCCc1nc(-c2cc3c(-c4ccc(F)cc4)nccc3[nH]c2=O)no1 [Example 40] | 7.45 | – |
| CCc1nc(-c2cc3c(C4CC=CCC4)nccc3[nH]c2=O)no1 (stereo not drawn) [Example 25] | 1.84 | – |
| CCCc1nccc2[nH]c(=O)c(-c3noc(C4CC4)n3)cc12 [Example 49] | 1.11 | – |

| SMILES | IC50 (benzodiazepine receptor) [nM] | TBPS binding Variation Rate [1] [%] |
| --- | --- | --- |
| CCc1nc(-c2cc3c(-c4ccc(F)cc4)nccc3[nH]c2=O)no1 [Example 28] | 1.25 | – |
| CCCCc1nccc2[nH]c(=O)c(-c3noc(CC)n3)cc12 [Example 19] | 6.37 | – |
| CC(C)c1nc(-c2cc3c(C(C)C)nccc3[nH]c2=O)no1 [Example 43] | – | 28 |
| O=c1[nH]c2ccnc(-c3ccc(F)cc3)c2cc1-c1nc(C2CC2)no1 [Example 238] | 1.38 | – |
| CC(C)c1nc(-c2cc3c(-c4ccco4)nccc3[nH]c2=O)no1 [Example 113] | 2.18 | – |
| CCCc1nc(-c2cc3c(-c4ccsc4)nccc3[nH]c2=O)no1 [Example 111] | 2.06 | – |
| CCCc1noc(-c2cc3c(C4CC4)nccc3[nH]c2=O)n1 [Example 215] | 2.47 | – |
| CCc1nc(-c2cc3cnccc3[nH]c2=O)no1 [Example 12] | 7.89 | – |
| O=c1[nH]c2ccnc(-c3cccc(F)c3)c2cc1-c1nc(C2CC2)no1 [Example 237] | 1.86 | – |
| CCCc1nc(-c2cc3c(-c4cccs4)nccc3[nH]c2=O)no1 [Example 110] | 1.16 | – |
| CC(C)c1noc(-c2cc3c(-c4ccsc4)nccc3[nH]c2=O)n1 [Example 231] | 0.71 | – |
| CCc1nc(-c2cc3c(-c4ccc(OC)cc4)nccc3[nH]c2=O)no1 [Example 33] | 5.5 | – |
| CCc1noc(-c2cc3c(C4CCCCC4)nccc3[nH]c2=O)n1 [Example 197] | 1.97 | – |
| O=c1[nH]c2ccnc(-c3ccco3)c2cc1-c1noc(C2CC2)n1 [Example 121] | 0.78 | – |
| O=c1[nH]c2ccnc(-c3ccc(F)cc3)c2cc1-c1noc(C2CC2)n1 [Example 54] | 1.21 | – |
| CC(C)c1nc(-c2cc3c(-c4cccs4)nccc3[nH]c2=O)no1 [Example 114] | 1.08 | – |
| C=C(C)c1nc(-c2cc3c(C4CC4)nccc3[nH]c2=O)no1 [Example 60] | 2.01 | – |
| O=c1[nH]c2ccnc(C3CC3)c2cc1-c1noc(C2CC2)n1 [Example 51] | 0.79 | – |
| CCCCCc1nccc2[nH]c(=O)c(-c3noc(CC)n3)cc12 [Example 22] | 3.76 | – |
| CC(C)c1nc(-c2cc3c(C4CC4)nccc3[nH]c2=O)no1 [Example 44] | 2.62 | – |
